Laboratory results: US8969360B2, “Compounds useful as inhibitors of ATR kinase” (Vertex Pharmaceuticals Incorporated, priority 2013, dated 2015)

Tests used:
[1] = target: T1, ATR kinase (Homo sapiens, UniProt Q13535); experiment: ATR Inhibition Assay (radioactive-phosphate incorporation); assay type: biochemical; conditions: Ki(app); 5 nM full-length ATR, 10 μM ATP, 800 μM target peptide, 25° C.
T1 construct: Assays were carried out at 25° C. in the presence of 5 nM full-length ATR
Procedure: Compounds were screened for their ability to inhibit ATR kinase using a radioactive-phosphate incorporation assay. Assays were carried out in a mixture of 50 mM Tris/HCl (pH 7.5), 10 mM MgCl2 and 1 mM DTT. Final substrate concentrations were 10 μM [γ-33P]ATP (3 mCi 33P ATP/mmol ATP, Perkin Elmer) and 800 μM target peptide (ASELPASQPQPFSAKKK (SEQ. ID NO: 1)).
Assays were carried out at 25° C. in the presence of 5 nM full-length ATR. An assay stock buffer solution was prepared containing all of the reagents listed above, with the exception of ATP and the test compound of interest. 13.5 μL of the stock solution was placed in a 96 well plate followed by addition of 2 μL of DMSO stock containing serial dilutions of the test compound (typically starting from a final concentration of 15 μM with 3-fold serial dilutions) in duplicate (final DMSO concentration 7%). The plate was pre-incubated for 10 minutes at 25° C. and the reaction initiated by addition of 15 μL [γ-33P]ATP (final concentration 10 μM).
The reaction was stopped after […] by the addition of 30 μL, 0.1M phosphoric acid containing 2 mM ATP. A multiscreen phosphocellulose filter 96-well plate (Millipore, Cat no. MAPHN0B50) was pretreated with 100 μL 0.2M phosphoric acid prior to the addition of 45 μL of the stopped assay mixture. The plate was washed with 5×200 μL 0.2M phosphoric acid. After drying, 100 μL Optiphase ‘SuperMix’ liquid scintillation cocktail (Perkin Elmer) was added to the well prior to scintillation counting (1450 Microbeta Liquid Scintillation Counter, Wallac).
After removing mean background values for all of the data points, Ki(app) data were calculated from non-linear regression analysis of the initial rate data using the Prism software package (GraphPad Prism version 3.0cx for Macintosh, GraphPad Software, San Diego Calif., USA).
Compounds with a Ki value of <0.01 μM are marked with “+++.” Compounds with a Ki value >0.01 μM but <1 μM are marked with “++.” Compounds with a Ki value >1 μM but <5 μM are marked with “+.”

[2] = system: HCT116 colorectal cancer cells; experiment: Cisplatin Sensitization Assay (96 h cell viability MTS); assay type: cell-based; conditions: concentration of compound required to reduce the IC50 of Cisplatin alone by at least 3-fold; HCT116, 96 h MTS
Procedure: Compounds can be screened for their ability to sensitize HCT116 colorectal cancer cells to Cisplatin using a 96 h cell viability (MTS) assay. […] Compounds and Cisplatin are then both added simultaneously to the cell media in 2-fold serial dilutions from a top final concentration of 10 μM as a full matrix of concentrations in a final cell volume of 200 μl, and the cells are then incubated at 37° C. in 5% CO2. After 96 h, 40 μl of MTS reagent (Promega G358a) is added to each well and the cells are incubated for 1 h at 37° C. in 5% CO2. Finally, absorbance is measured at 490 nm using a SpectraMax Plus 384 reader (Molecular Devices) and the concentration of compound required to reduce the IC50 of Cisplatin alone by at least 3-fold (to 1 decimal place) can be reported.
Compounds with a Cisplatin sensitization value of <0.02 μM are marked with “+++.” Compounds with a Cisplatin sensitization value>0.02 μM but <0.2 μM are marked with “++.” Compounds with a Cisplatin sensitization value >0.2 μM but <5 μM are marked with “+.”

T1 sequence (Q13535 whole entry): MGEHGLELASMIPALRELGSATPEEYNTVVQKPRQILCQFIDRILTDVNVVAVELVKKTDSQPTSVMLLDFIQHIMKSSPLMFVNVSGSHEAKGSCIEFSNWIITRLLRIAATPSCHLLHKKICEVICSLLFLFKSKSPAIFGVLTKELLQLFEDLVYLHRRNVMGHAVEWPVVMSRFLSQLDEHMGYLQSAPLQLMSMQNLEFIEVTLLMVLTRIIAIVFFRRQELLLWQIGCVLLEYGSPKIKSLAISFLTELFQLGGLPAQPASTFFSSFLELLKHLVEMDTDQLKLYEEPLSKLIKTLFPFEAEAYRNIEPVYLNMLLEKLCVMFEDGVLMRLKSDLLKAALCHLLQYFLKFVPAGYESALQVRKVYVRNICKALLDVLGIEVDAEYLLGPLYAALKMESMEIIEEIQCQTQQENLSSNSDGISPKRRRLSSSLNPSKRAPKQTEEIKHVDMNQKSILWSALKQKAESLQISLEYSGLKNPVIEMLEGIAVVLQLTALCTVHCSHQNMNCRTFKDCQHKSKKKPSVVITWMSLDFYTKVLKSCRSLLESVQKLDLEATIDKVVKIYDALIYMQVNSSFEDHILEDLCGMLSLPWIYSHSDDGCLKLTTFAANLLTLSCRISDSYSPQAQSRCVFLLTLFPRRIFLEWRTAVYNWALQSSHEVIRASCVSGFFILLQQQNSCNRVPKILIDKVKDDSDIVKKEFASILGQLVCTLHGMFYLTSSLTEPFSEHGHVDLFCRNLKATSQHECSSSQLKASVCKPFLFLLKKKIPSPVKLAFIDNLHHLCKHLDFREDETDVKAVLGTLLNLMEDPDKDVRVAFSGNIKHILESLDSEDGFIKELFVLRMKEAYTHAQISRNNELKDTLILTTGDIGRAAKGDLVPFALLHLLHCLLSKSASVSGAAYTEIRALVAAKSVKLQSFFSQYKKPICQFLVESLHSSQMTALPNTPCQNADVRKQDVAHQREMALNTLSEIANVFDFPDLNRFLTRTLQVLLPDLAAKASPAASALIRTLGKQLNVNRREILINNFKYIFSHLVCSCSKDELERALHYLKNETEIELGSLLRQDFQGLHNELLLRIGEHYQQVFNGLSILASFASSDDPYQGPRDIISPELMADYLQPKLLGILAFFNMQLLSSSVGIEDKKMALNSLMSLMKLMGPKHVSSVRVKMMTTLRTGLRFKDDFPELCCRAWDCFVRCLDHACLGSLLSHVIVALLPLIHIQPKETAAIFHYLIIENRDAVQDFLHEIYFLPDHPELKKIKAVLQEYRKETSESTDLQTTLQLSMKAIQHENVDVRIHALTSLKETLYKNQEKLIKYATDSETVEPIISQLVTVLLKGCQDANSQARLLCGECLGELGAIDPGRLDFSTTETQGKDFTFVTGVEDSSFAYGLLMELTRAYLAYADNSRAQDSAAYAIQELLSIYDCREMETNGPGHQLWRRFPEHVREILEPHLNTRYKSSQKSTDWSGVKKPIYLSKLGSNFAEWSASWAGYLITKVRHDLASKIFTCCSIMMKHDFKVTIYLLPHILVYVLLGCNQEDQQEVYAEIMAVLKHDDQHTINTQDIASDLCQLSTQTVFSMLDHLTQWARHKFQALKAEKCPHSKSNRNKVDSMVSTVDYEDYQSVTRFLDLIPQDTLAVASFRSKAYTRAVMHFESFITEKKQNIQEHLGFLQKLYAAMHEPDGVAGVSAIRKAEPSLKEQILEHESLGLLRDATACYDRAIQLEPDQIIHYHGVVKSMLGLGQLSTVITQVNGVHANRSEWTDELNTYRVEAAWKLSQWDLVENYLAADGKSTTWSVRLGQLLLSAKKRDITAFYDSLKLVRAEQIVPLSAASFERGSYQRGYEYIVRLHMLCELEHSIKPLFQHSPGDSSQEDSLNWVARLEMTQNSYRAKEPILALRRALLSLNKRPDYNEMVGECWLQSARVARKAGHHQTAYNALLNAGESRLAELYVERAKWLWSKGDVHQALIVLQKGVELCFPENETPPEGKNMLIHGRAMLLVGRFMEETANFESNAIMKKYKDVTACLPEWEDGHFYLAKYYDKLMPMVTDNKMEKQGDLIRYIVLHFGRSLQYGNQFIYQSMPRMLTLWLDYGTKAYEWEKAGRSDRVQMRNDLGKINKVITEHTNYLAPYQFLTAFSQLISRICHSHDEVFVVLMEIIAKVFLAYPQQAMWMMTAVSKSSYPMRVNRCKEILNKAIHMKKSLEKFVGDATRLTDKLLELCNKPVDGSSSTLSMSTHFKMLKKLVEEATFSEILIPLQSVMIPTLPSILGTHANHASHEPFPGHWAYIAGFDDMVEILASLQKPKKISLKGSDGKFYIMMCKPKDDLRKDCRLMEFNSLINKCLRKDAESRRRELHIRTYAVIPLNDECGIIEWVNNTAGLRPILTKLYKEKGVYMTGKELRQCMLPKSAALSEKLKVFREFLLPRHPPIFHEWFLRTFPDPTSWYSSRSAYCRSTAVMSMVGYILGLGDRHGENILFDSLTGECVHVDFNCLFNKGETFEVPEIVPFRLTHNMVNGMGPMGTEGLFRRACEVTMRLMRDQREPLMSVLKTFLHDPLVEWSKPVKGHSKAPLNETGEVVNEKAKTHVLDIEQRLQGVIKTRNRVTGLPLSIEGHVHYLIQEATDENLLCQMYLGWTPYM

SMILES | Ki [1] | Synergy with Cisplatin [2]
CCOc1ccncc1NC(=O)c1c(N)nn2ccc(C(F)(F)F)nc12 [I-O-2, 2-amino-N-(4-ethoxypyridin-3-yl)-5-(trifluoromethyl)pyrazolo[1,5-a]pyrimidine-3-carboxamide] | < 10 nM | +++ (Compounds with a Cisplatin sensitization value of <0.02 μM are marked with “+++.”)
Nc1nn2ccc(C(F)(F)F)nc2c1C(=O)Nc1cnccc1OCC(F)(F)F [I-O-3, 2-amino-N-(4-(2,2,2-trifluoroethoxy)pyridin-3-yl)-5-(trifluoromethyl)pyrazolo[1,5-a]pyrimidine-3-carboxamide] | < 10 nM | +++ (Compounds with a Cisplatin sensitization value of <0.02 μM are marked with “+++.”)
CC(C)Oc1ccncc1NC(=O)c1c(N)nn2ccc(C(F)(F)F)nc12 [I-O-4, 2-amino-N-(4-isopropoxypyridin-3-yl)-5-(trifluoromethyl)pyrazolo[1,5-a]pyrimidine-3-carboxamide] | 10 to 1000 nM | +++ (Compounds with a Cisplatin sensitization value of <0.02 μM are marked with “+++.”)
Nc1nn2ccc(C(F)(F)F)nc2c1C(=O)Nc1cnccc1OC1CCC1 [I-O-5, 2-amino-N-(4-cyclobutoxypyridin-3-yl)-5-(trifluoromethyl)pyrazolo[1,5-a]pyrimidine-3-carboxamide] | 10 to 1000 nM | +++ (Compounds with a Cisplatin sensitization value of <0.02 μM are marked with “+++.”)
Nc1nn2ccc(C(F)(F)F)nc2c1C(=O)Nc1cnccc1OCC1CC1 [I-O-6, 2-amino-N-(4-(cyclopropylmethoxy)pyridin-3-yl)-5-(trifluoromethyl)pyrazolo[1,5-a]pyrimidine-3-carboxamide] | < 10 nM | +++ (Compounds with a Cisplatin sensitization value of <0.02 μM are marked with “+++.”)
COCCOc1ccncc1NC(=O)c1c(N)nn2ccc(C(F)(F)F)nc12 [I-O-8, 2-amino-N-(4-(2-methoxyethoxy)pyridin-3-yl)-5-(trifluoromethyl)pyrazolo[1,5-a]pyrimidine-3-carboxamide] | 10 to 1000 nM | +++ (Compounds with a Cisplatin sensitization value of <0.02 μM are marked with “+++.”)
Nc1nn2ccc(C(F)(F)F)nc2c1C(=O)Nc1cnccc1O[C@@H]1CCOC1 [I-O-9, (R)-2-amino-N-(4-((tetrahydrofuran-3-yl)oxy)pyridin-3-yl)-5-(trifluoromethyl)pyrazolo[1,5-a]pyrimidine-3-carboxamide] | 10 to 1000 nM | +++ (Compounds with a Cisplatin sensitization value of <0.02 μM are marked with “+++.”)
Nc1nn2ccc(C(F)(F)F)nc2c1C(=O)Nc1cnccc1O[C@H]1CCOC1 [I-O-10, (S)-2-amino-N-(4-((tetrahydrofuran-3-yl)oxy)pyridin-3-yl)-5-(trifluoromethyl)pyrazolo[1,5-a]pyrimidine-3-carboxamide] | 10 to 1000 nM | +++ (Compounds with a Cisplatin sensitization value of <0.02 μM are marked with “+++.”)
Nc1nn2ccc(C(F)(F)F)nc2c1C(=O)Nc1cnccc1OC1CCOCC1 [I-O-11, 2-amino-N-(4-((tetrahydro-2H-pyran-4-yl)oxy)pyridin-3-yl)-5-(trifluoromethyl)pyrazolo[1,5-a]pyrimidine-3-carboxamide] | 10 to 1000 nM | +++ (Compounds with a Cisplatin sensitization value of <0.02 μM are marked with “+++.”)
Nc1nn2ccc(C(F)(F)F)nc2c1C(=O)Nc1cnccc1OC1CCCOC1 (stereo not shown) [I-O-12, 2-amino-N-(4-((tetrahydro-2H-pyran-3-yl)oxy)pyridin-3-yl)-5-(trifluoromethyl)pyrazolo[1,5-a]pyrimidine-3-carboxamide] | 10 to 1000 nM | +++ (Compounds with a Cisplatin sensitization value of <0.02 μM are marked with “+++.”)
Nc1nn2ccc(C(F)(F)F)nc2c1C(=O)Nc1cnccc1OCCO [I-O-13, 2-amino-N-(4-(2-hydroxyethoxy)pyridin-3-yl)-5-(trifluoromethyl)pyrazolo[1,5-a]pyrimidine-3-carboxamide] | < 10 nM | +++ (Compounds with a Cisplatin sensitization value of <0.02 μM are marked with “+++.”)
Nc1nn2ccc(C(F)(F)F)nc2c1C(=O)Nc1cnccc1OCCCO [I-O-14, 2-amino-N-(4-(3-hydroxypropoxy)pyridin-3-yl)-5-(trifluoromethyl)pyrazolo[1,5-a]pyrimidine-3-carboxamide] | < 10 nM | +++ (Compounds with a Cisplatin sensitization value of <0.02 μM are marked with “+++.”)
Nc1nn2ccc(C(F)(F)F)nc2c1C(=O)Nc1cnccc1Oc1cccnc1 [I-O-15, 2-amino-N-(4-(pyridin-3-yloxy)pyridin-3-yl)-5-(trifluoromethyl)pyrazolo[1,5-a]pyrimidine-3-carboxamide] | < 10 nM | +++ (Compounds with a Cisplatin sensitization value of <0.02 μM are marked with “+++.”)
Nc1nn2ccc(C(F)(F)F)nc2c1C(=O)Nc1cnccc1Oc1ccncc1 [I-O-16, 2-amino-N-(4-(pyridin-4-yloxy)pyridin-3-yl)-5-(trifluoromethyl)pyrazolo[1,5-a]pyrimidine-3-carboxamide] | 10 to 1000 nM | + (Compounds with a Cisplatin sensitization value >0.2 μM but <5 μM are marked with “+.”)
CN(C)CCOc1ccncc1NC(=O)c1c(N)nn2ccc(C(F)(F)F)nc12 [I-O-17, 2-amino-N-(4-(2-(dimethylamino)ethoxy)pyridin-3-yl)-5-(trifluoromethyl)pyrazolo[1,5-a]pyrimidine-3-carboxamide] | 10 to 1000 nM | ++ (Compounds with a Cisplatin sensitization value>0.02 μM but <0.2 μM are marked with “++.”)
Nc1nn2ccc(C(F)(F)F)nc2c1C(=O)Nc1cnccc1OC1CNC1 [I-O-18, 2-amino-N-(4-(azetidin-3-yloxy)pyridin-3-yl)-5-(trifluoromethyl)pyrazolo[1,5-a]pyrimidine-3-carboxamide] | 10 to 1000 nM | ++ (Compounds with a Cisplatin sensitization value>0.02 μM but <0.2 μM are marked with “++.”)
CN1CC[C@@H](Oc2ccncc2NC(=O)c2c(N)nn3ccc(C(F)(F)F)nc23)C1 [I-O-19, (R)-2-amino-N-(4-((1-methylpyrrolidin-3-yl)oxy)pyridin-3-yl)-5-(trifluoromethyl)pyrazolo[1,5-a]pyrimidine-3-carboxamide] | 10 to 1000 nM | ++ (Compounds with a Cisplatin sensitization value>0.02 μM but <0.2 μM are marked with “++.”)
Nc1nn2ccc(C(F)(F)F)nc2c1C(=O)Nc1cnccc1OCCN1CCOCC1 [I-O-20, 2-amino-N-(4-(2-morpholinoethoxy)pyridin-3-yl)-5-(trifluoromethyl)pyrazolo[1,5-a]pyrimidine-3-carboxamide] | 10 to 1000 nM | ++ (Compounds with a Cisplatin sensitization value>0.02 μM but <0.2 μM are marked with “++.”)
Nc1nn2ccc(C(F)(F)F)nc2c1C(=O)Nc1cnccc1O[C@H]1CCNC1 [I-O-21, (S)-2-amino-N-(4-(pyrrolidin-3-yloxy)pyridin-3-yl)-5-(trifluoromethyl)pyrazolo[1,5-a]pyrimidine-3-carboxamide] | 10 to 1000 nM | ++ (Compounds with a Cisplatin sensitization value>0.02 μM but <0.2 μM are marked with “++.”)
Nc1nn2ccc(C(F)(F)F)nc2c1C(=O)Nc1cnccc1OC1CC2(CCN2)C1 (stereo not shown) [I-O-22, N-(4-((4s,6r)-1-azaspiro[3.3]heptan-6-yloxy)pyridin-3-yl)-2-amino-5-(trifluoromethyl)pyrazolo[1,5-a]pyrimidine-3-carboxamide] | 10 to 1000 nM | ++ (Compounds with a Cisplatin sensitization value>0.02 μM but <0.2 μM are marked with “++.”)
